In PubChem BioAssay (NCI):
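Assay format: 96-well plates, 48-hour exposure. GI50 = concentration required for 50% inhibition of growth. TGI: total growth inhibition.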

Legend:
Test in all cases: DTP human tumour cell line panel, 48 h
786-0 renal = tested on: 786-0 renal
A498 renal = tested on: A498 renal
A549 NSCLC = tested on: A549 NSCLC
ACHN renal = tested on: ACHN renal
BT-549 breast = tested on: BT-549 breast
CAKI-1 renal = tested on: CAKI-1 renal
CCRF-CEM leukemia = tested on: CCRF-CEM leukemia
COLO 205 colon = tested on: COLO 205 colon
DU-145 prostate = tested on: DU-145 prostate
EKVX NSCLC = tested on: EKVX NSCLC
HCC-2998 colon = tested on: HCC-2998 colon
HCT-116 colon = tested on: HCT-116 colon
HCT-15 colon = tested on: HCT-15 colon
HL-60(TB) leukemia = tested on: HL-60(TB) leukemia
HOP-62 NSCLC = tested on: HOP-62 NSCLC
HOP-92 NSCLC = tested on: HOP-92 NSCLC
HS 578T breast = tested on: HS 578T breast
HT29 colon = tested on: HT29 colon
IGROV1 ovarian = tested on: IGROV1 ovarian
K-562 leukemia = tested on: K-562 leukemia
KM12 colon = tested on: KM12 colon
LOX IMVI melanoma = tested on: LOX IMVI melanoma
M14 melanoma = tested on: M14 melanoma
MALME-3M melanoma = tested on: MALME-3M melanoma
MCF7 breast = tested on: MCF7 breast
MDA-MB-231 breast = tested on: MDA-MB-231 breast
MDA-MB-435 = tested on: MDA-MB-435
MOLT-4 leukemia = tested on: MOLT-4 leukemia
NCI-H226 lung = tested on: NCI-H226 lung
NCI-H23 lung = tested on: NCI-H23 lung
NCI-H460 lung = tested on: NCI-H460 lung
NCI-H522 lung = tested on: NCI-H522 lung
NCI/ADR-RES ovarian = tested on: NCI/ADR-RES ovarian
OVCAR-3 ovarian = tested on: OVCAR-3 ovarian
OVCAR-4 ovarian = tested on: OVCAR-4 ovarian
OVCAR-5 ovarian = tested on: OVCAR-5 ovarian
OVCAR-8 ovarian = tested on: OVCAR-8 ovarian
PC-3 prostate = tested on: PC-3 prostate
RPMI-8226 leukemia = tested on: RPMI-8226 leukemia
RXF 393 renal = tested on: RXF 393 renal
SF-268 CNS = tested on: SF-268 CNS
SF-295 CNS = tested on: SF-295 CNS
SF-539 CNS = tested on: SF-539 CNS
SK-MEL-2 melanoma = tested on: SK-MEL-2 melanoma
SK-MEL-28 melanoma = tested on: SK-MEL-28 melanoma
SK-MEL-5 melanoma = tested on: SK-MEL-5 melanoma
SK-OV-3 ovarian = tested on: SK-OV-3 ovarian
SN12C renal = tested on: SN12C renal
SNB-19 CNS = tested on: SNB-19 CNS
SNB-75 CNS = tested on: SNB-75 CNS
SR leukemia = tested on: SR leukemia
SW-620 colon = tested on: SW-620 colon
T-47D breast = tested on: T-47D breast
TK-10 renal = tested on: TK-10 renal
U251 CNS = tested on: U251 CNS
UACC-257 melanoma = tested on: UACC-257 melanoma
UACC-62 melanoma = tested on: UACC-62 melanoma
UO-31 renal = tested on: UO-31 renal

CCC(c1ccccc1)c1noc(CCN(CC)CC)n1 (stereo unspecified)
GI50 (786-0 renal): 34.4 µM
TGI (786-0 renal): > 100 µM
GI50 (A498 renal): > 81.9 µM
TGI (A498 renal): > 100 µM
GI50 (A549 NSCLC): 42.1 µM
TGI (A549 NSCLC): > 100 µM
GI50 (ACHN renal): 16.1 µM
TGI (ACHN renal): 31.3 µM
GI50 (BT-549 breast): 39.6 µM
TGI (BT-549 breast): > 100 µM
GI50 (CAKI-1 renal): 2.18 µM
TGI (CAKI-1 renal): 6.39 µM
GI50 (CCRF-CEM leukemia): 28.5 µM
TGI (CCRF-CEM leukemia): > 86.3 µM
GI50 (COLO 205 colon): 17.5 µM
TGI (COLO 205 colon): 34.5 µM
GI50 (DU-145 prostate): 22.7 µM
TGI (DU-145 prostate): > 64.3 µM
GI50 (EKVX NSCLC): > 47 µM
TGI (EKVX NSCLC): > 91.3 µM
GI50 (HCC-2998 colon): 50.1 µM
TGI (HCC-2998 colon): > 100 µM
GI50 (HCT-116 colon): 18.5 µM
TGI (HCT-116 colon): 43.4 µM
GI50 (HCT-15 colon): 19.2 µM
TGI (HCT-15 colon): > 62.3 µM
GI50 (HL-60(TB) leukemia): 18.1 µM
TGI (HL-60(TB) leukemia): 54.5 µM
GI50 (HOP-62 NSCLC): 42.5 µM
TGI (HOP-62 NSCLC): > 100 µM
GI50 (HOP-92 NSCLC): 7.99 µM
TGI (HOP-92 NSCLC): 49.6 µM
GI50 (HS 578T breast): > 40.7 µM
TGI (HS 578T breast): > 72.8 µM
GI50 (HT29 colon): 27.2 µM
TGI (HT29 colon): 81.3 µM
GI50 (IGROV1 ovarian): > 48.5 µM
TGI (IGROV1 ovarian): > 92.1 µM
GI50 (K-562 leukemia): 25.8 µM
TGI (K-562 leukemia): > 100 µM
GI50 (KM12 colon): 22.8 µM
TGI (KM12 colon): > 56.1 µM
GI50 (LOX IMVI melanoma): 34.1 µM
TGI (LOX IMVI melanoma): > 60.3 µM
GI50 (M14 melanoma): 28.8 µM
TGI (M14 melanoma): > 100 µM
GI50 (MALME-3M melanoma): 30.2 µM
TGI (MALME-3M melanoma): > 100 µM
GI50 (MCF7 breast): 8.98 µM
TGI (MCF7 breast): 76.2 µM
GI50 (MDA-MB-231 breast): 26.4 µM
TGI (MDA-MB-231 breast): > 91.2 µM
GI50 (MDA-MB-435): 23.8 µM
TGI (MDA-MB-435): > 78.8 µM
GI50 (MOLT-4 leukemia): 40.9 µM
TGI (MOLT-4 leukemia): > 100 µM
GI50 (NCI-H226 lung): 23.8 µM
TGI (NCI-H226 lung): 70.9 µM
GI50 (NCI-H23 lung): 63.3 µM
TGI (NCI-H23 lung): > 100 µM
GI50 (NCI-H460 lung): > 52.3 µM
TGI (NCI-H460 lung): > 87.8 µM
GI50 (NCI-H522 lung): 2.98 µM
TGI (NCI-H522 lung): 9.09 µM
GI50 (NCI/ADR-RES ovarian): 39.1 µM
TGI (NCI/ADR-RES ovarian): > 100 µM
GI50 (OVCAR-3 ovarian): 25.3 µM
TGI (OVCAR-3 ovarian): > 56.2 µM
GI50 (OVCAR-4 ovarian): 16.4 µM
TGI (OVCAR-4 ovarian): 40.7 µM
GI50 (OVCAR-5 ovarian): 17.1 µM
TGI (OVCAR-5 ovarian): 35.6 µM
GI50 (OVCAR-8 ovarian): 32.5 µM
TGI (OVCAR-8 ovarian): > 100 µM
GI50 (PC-3 prostate): 49.6 µM
TGI (PC-3 prostate): > 100 µM
GI50 (RPMI-8226 leukemia): 13.2 µM
TGI (RPMI-8226 leukemia): > 100 µM
GI50 (RXF 393 renal): 14.8 µM
TGI (RXF 393 renal): 29 µM
GI50 (SF-268 CNS): 35.1 µM
TGI (SF-268 CNS): > 100 µM
GI50 (SF-295 CNS): > 56.9 µM
TGI (SF-295 CNS): > 100 µM
GI50 (SF-539 CNS): 23.2 µM
TGI (SF-539 CNS): 71.1 µM
GI50 (SK-MEL-2 melanoma): 24.7 µM
TGI (SK-MEL-2 melanoma): 67.7 µM
GI50 (SK-MEL-28 melanoma): 26.7 µM
TGI (SK-MEL-28 melanoma): > 73.2 µM
GI50 (SK-MEL-5 melanoma): 31.1 µM
TGI (SK-MEL-5 melanoma): > 100 µM
GI50 (SK-OV-3 ovarian): > 100 µM
TGI (SK-OV-3 ovarian): > 100 µM
GI50 (SN12C renal): 27.1 µM
TGI (SN12C renal): > 94.8 µM
GI50 (SNB-19 CNS): > 78.4 µM
TGI (SNB-19 CNS): > 100 µM
GI50 (SNB-75 CNS): 21.7 µM
TGI (SNB-75 CNS): > 100 µM
GI50 (SR leukemia): 37.5 µM
TGI (SR leukemia): > 100 µM
GI50 (SW-620 colon): 21 µM
TGI (SW-620 colon): > 68.1 µM
GI50 (T-47D breast): 13.1 µM
TGI (T-47D breast): 76.2 µM
GI50 (TK-10 renal): 42.8 µM
TGI (TK-10 renal): > 100 µM
GI50 (U251 CNS): 29.5 µM
TGI (U251 CNS): > 100 µM
GI50 (UACC-257 melanoma): > 51.2 µM
TGI (UACC-257 melanoma): > 100 µM
GI50 (UACC-62 melanoma): 43.2 µM
TGI (UACC-62 melanoma): > 100 µM
GI50 (UO-31 renal): 32.2 µM
TGI (UO-31 renal): > 100 µM
